# From patent US20130065818A1, “Arylamide Compounds And Compositions And Uses Thereof” (POLYMEDIX, priority 2006, published 2013)
# Values joined by “and” are separate entries in the source; they are usually repeats but may differ in a detail not shown here. Identical values can stand only once.
# Legend:
# Experiment in all cases: MIC, 25 ocular isolates, broth microdilution (Example 8)
# Format in all cases: cell-based
# [1] = system: Staphylococcus aureus fluoroquinolone-susceptible; design: Mean MIC (Descriptive Statistics) / Minimum MIC (Descriptive Statistics) / Maximum MIC (Descriptive Statistics): unit: µg/mL; conditions: 25 isolates
# Procedure: (§1) • Mueller-Hinton Broth in tubes was inoculated with 25 ocular isolates of Staphylococcus aureus fluoroquinolone-susceptible, Staphylococcus aureus fluoroquinolone-resistant, Staphylococcus epidermidis (Coagulase-negative Staphylococcus) fluoroquinolone-susceptible, Staphylococcus epidermidis (Coagulase-negative Staphylococcus) fluoroquinolone-resistant, Pseudomonas aeruginosa and Serratia marcescens, plus two controls (Staphylococcus aureus and E. coli) and incubated at 37° C. overnight on a shaker set at 250 rpm.
# (§2) On the day of testing, a 640 μg/ml (1280 μg/ml for Serratia marcescens and Pseudomonas aeruginosa) concentration was prepared from a 1% stock solution in 0.01% acetic acid, 0.2% BSA in polypropylene tubes.
# (§3) Serial doubling dilutions in 0.01% acetic acid, 0.2% BSA in 96 well polypropylene plates, which are used as reservoirs for the inoculation of the test plates, were carried out to obtain serial dilutions of test agents at 10 times the required test concentrations: 640, 320, 160, 80, 40, 20, 10, 5, 2.5, 1.25, and 0.625 μg/ml (1280, 640, 320, 160, 80, 40, 20, 10, 5, 2.5, and 1.25 μg/ml for Serratia marcescens and Pseudomonas aeruginosa).
# (§4) Ten μl of diluted 10×test agents was added to each well of one row of the 96 well polypropylene plates from column 2 to column 12 (column 1 is a control for bacteria alone, with no peptide). Test agent concentrations in columns 2-12 were as follows: 64, 32, 16, 8, 4, 2, 1, 0.5, 0.25, 0.125, and 0.0625 μg/ml (128, 64, 32, 16, 8, 4, 2, 1, 0.5, 0.25, and 0.125 μg/ml for Serratia marcescens and Pseudomonas aeruginosa). The same peptide was in each of the 8 rows. One plate contained dilutions of one test agent and 8 bacterial isolates.
# (§5) On the day of testing, the overnight bacterial broth cultures of Staphylococcus aureus fluoroquinolone-susceptible, Staphylococcus aureus fluoroquinolone-resistant, Staphylococcus epidermidis (Coagulase-negative Staphylococcus) fluoroquinolone-susceptible, Staphylococcus epidermidis (Coagulase-negative Staphylococcus) fluoroquinolone-resistant, Serratia marcescens, and Pseudomonas aeruginosa, plus two controls (Staphylococcus aureus and E. coli) were diluted in 5 ml of trypticase soy broth to yield turbidity equal to a 0.5 McFarland standard. The final inoculum for MIC testing for Staphylococcus aureus fluoroquinolone-susceptible, Staphylococcus aureus fluoroquinolone-resistant, Staphylococcus epidermidis (Coagulase-negative Staphylococcus) fluoroquinolone-susceptible, Staphylococcus epidermidis (Coagulase-negative Staphylococcus) fluoroquinolone-resistant, Serratia marcescens, and Pseudomonas aeruginosa was achieved by placing 0.05 ml of the turbidity adjusted sample to 5 ml of Mueller-Hinton broth.
# (§6) Ninety μl of the bacterial suspensions was dispensed in each well from column 1 to column 12. Each bacterial isolate was placed in one row of a 96 well polypropylene plate containing the test agents. The plates were placed on shaker at 15 minutes at room temperature, and then incubated at 37° C. overnight. MICs were determined visually as the lowest concentration of drug that inhibits visible bacterial growth.
# Haemophilus influenzae = system: Haemophilus influenzae
# Procedure: HTM (Haemophilus Test Medium) in tubes was inoculated with 25 ocular isolates of Haemophilus influenzae plus two controls (Staphylococcus aureus and E. coli) and incubated at 37° C. overnight. Additionally, Mueller-Hinton Broth in tubes was inoculated with two controls (Staphylococcus aureus and E. coli) and incubated at 37° C. overnight on a shaker set at 250 rpm.
# as §2, §3, §4
# On the day of testing, the overnight bacterial broth cultures of Haemophilus species was diluted in 5 ml of trypticase soy broth to yield turbidity equal to a 0.5 McFarland standard. The final inoculum for MIC testing for Haemophilus species was achieved by placing 0.1 ml of the turbidity adjusted sample to 5 ml of HTM medium.
# as §6
# [2] = system: Staphylococcus epidermidis (Coagulase-negative Staphylococcus) fluoroquinolone-resistant; conditions: 25 isolates; <0.0625 was Replaced with 0.03125
# Procedure: as §1, §2, §3, §4, §5, §6
# [3] = system: Staphylococcus epidermidis (Coagulase-negative Staphylococcus) fluoroquinolone-susceptible; conditions: 25 isolates; <0.0625 was Replaced with 0.03125
# Procedure: as §1, §2, §3, §4, §5, §6
# Serratia marcescens = conditions: 25 isolates; >128 was Replaced with 256
# Procedure: as §1, §2, §3, §4, §5, §6
# [4] = system: Staphylococcus aureus fluoroquinolone-resistant; conditions: 25 isolates
# Procedure: as §1, §2, §3, §4, §5, §6
# Pseudomonas aeruginosa = conditions: 25 isolates; >128 was Replaced with 256
# Procedure: as §1, §2, §3, §4, §5, §6
# [5] = system: Moraxella species (including Moraxella catarrhalis)
# Procedure: (§7) Mueller-Hinton Broth supplemented with 2% lysed horse blood in tubes was inoculated with 25 ocular isolates of Streptococcus pneumoniae, Streptococcus viridans group, and Moraxella species (including Moraxella catarrhalis) plus two controls (Staphylococcus aureus and E. coli) and incubated at 37° C. overnight. Additionally, Mueller-Hinton Broth in tubes was inoculated with two controls (Staphylococcus aureus and E. coli) and incubated at 37° C. overnight on a shaker set at 250 rpm.
# as §2, §3, §4
# (§8) On the day of testing, the overnight bacterial broth cultures of Streptococcus pneumoniae, Streptococcus viridans and Moraxella species (including Moraxella catarrhalis) plus two controls (Staphylococcus aureus and E. coli) were diluted in 5 ml of trypticase soy broth to yield turbidity equal to a 0.5 McFarland standard. The final inoculum for MIC testing for Streptococcus pneumoniae, Streptococcus viridans and Moraxella species (including Moraxella catarrhalis) was achieved by placing 0.1 ml of the turbidity adjusted sample to 5 ml of Mueller-Hinton broth containing 2% lysed horse red blood cells.
# as §6
# [6] = system: Streptococcus viridans group; conditions: 25 isolates; >64 was Replaced with 128
# Procedure: as §7, §2, §3, §4, §8, §6
# Streptococcus pneumoniae = conditions: 25 isolates; >64 was Replaced with 128
# Procedure: as §7, §2, §3, §4, §8, §6
# [7] = descriptive statistics, n=25, >64 replaced with 128
# [8] = n=25 isolates, >64 replaced with 128
smiles,measurement,setting,value
N=C(N)NCCCCC(=O)Nc1cc(C(F)(F)F)cc(NC(=O)c2cnc(C(=O)Nc3cc(C(F)(F)F)cc(NC(=O)CCCCNC(=N)N)c3SCCN)cn2)c1SCCN [Olig 5],Maximum MIC (Descriptive Statistics),[1],0.5000
same,Mean MIC (Descriptive Statistics),[1],0.2450
same,Median MIC (Descriptive Statistics / Mann-Whitney),[1],0.2500
same,Minimum MIC (Descriptive Statistics),[1],0.1250
same,Minimum MIC,"Haemophilus influenzae; descriptive statistics, n=25",2.0 µg/mL
same,Maximum MIC,Haemophilus influenzae; [7],128.0 µg/mL
same,Mean MIC,Haemophilus influenzae; [7],48.6 µg/mL
same,Median MIC,Haemophilus influenzae; [8],16.0 µg/mL and 16.00 µg/mL
same,Maximum MIC (Descriptive Statistics),[2],0.5000
same,Mean MIC (Descriptive Statistics),[2],0.1475
same,Median MIC (Descriptive Statistics / Mann-Whitney),[2],0.125
same,Minimum MIC (Descriptive Statistics),[2],0.0313
same,Maximum MIC (Descriptive Statistics),[3],0.2500
same,Mean MIC (Descriptive Statistics),[3],0.1375
same,Median MIC (Descriptive Statistics / Mann-Whitney),[3],0.125
same,Minimum MIC (Descriptive Statistics),[3],0.0313
same,Maximum MIC (Descriptive Statistics),Serratia marcescens,256 µg/mL
same,Mean MIC (Descriptive Statistics),Serratia marcescens,233 µg/mL
same,Median MIC (Descriptive Statistics / Mann-Whitney),Serratia marcescens,256.0
same,Minimum MIC (Descriptive Statistics),Serratia marcescens,8 µg/mL
same,Maximum MIC (Descriptive Statistics),[4],0.5000
same,Mean MIC (Descriptive Statistics),[4],0.2900
same,Median MIC (Descriptive Statistics / Mann-Whitney),[4],0.2500
same,Minimum MIC (Descriptive Statistics),[4],0.1250
same,Maximum MIC (Descriptive Statistics),Pseudomonas aeruginosa,256 µg/mL
same,Mean MIC (Descriptive Statistics),Pseudomonas aeruginosa,85.9 µg/mL
same,Median MIC (Descriptive Statistics / Mann-Whitney),Pseudomonas aeruginosa,64.0
same,Minimum MIC (Descriptive Statistics),Pseudomonas aeruginosa,4 µg/mL
same,Minimum MIC,"[5]; descriptive statistics, n=25",0.13 µg/mL
same,Maximum MIC,[5]; [7],128.00 µg/mL
same,Mean MIC,[5]; [7],13.26 µg/mL
same,Median MIC,[5]; [8],0.50 µg/mL
same,Maximum MIC (Descriptive Statistics),[6],128 µg/mL
same,Mean MIC (Descriptive Statistics),[6],36.8 µg/mL
same,Median MIC (Descriptive Statistics / Mann-Whitney),[6],16.00
same,Minimum MIC (Descriptive Statistics),[6],0.5 µg/mL
same,Maximum MIC (Descriptive Statistics),Streptococcus pneumoniae,128 µg/mL
same,Mean MIC (Descriptive Statistics),Streptococcus pneumoniae,10.6 µg/mL
same,Median MIC (Descriptive Statistics / Mann-Whitney),Streptococcus pneumoniae,4.00
same,Minimum MIC (Descriptive Statistics),Streptococcus pneumoniae,0.5 µg/mL
